Assays:
[1] = biological target: T1, Poly [ADP-ribose] polymerase tankyrase-1 (Homo sapiens, UniProt O95271); design: species or system Sf9
T1 sequence (O95271 whole entry): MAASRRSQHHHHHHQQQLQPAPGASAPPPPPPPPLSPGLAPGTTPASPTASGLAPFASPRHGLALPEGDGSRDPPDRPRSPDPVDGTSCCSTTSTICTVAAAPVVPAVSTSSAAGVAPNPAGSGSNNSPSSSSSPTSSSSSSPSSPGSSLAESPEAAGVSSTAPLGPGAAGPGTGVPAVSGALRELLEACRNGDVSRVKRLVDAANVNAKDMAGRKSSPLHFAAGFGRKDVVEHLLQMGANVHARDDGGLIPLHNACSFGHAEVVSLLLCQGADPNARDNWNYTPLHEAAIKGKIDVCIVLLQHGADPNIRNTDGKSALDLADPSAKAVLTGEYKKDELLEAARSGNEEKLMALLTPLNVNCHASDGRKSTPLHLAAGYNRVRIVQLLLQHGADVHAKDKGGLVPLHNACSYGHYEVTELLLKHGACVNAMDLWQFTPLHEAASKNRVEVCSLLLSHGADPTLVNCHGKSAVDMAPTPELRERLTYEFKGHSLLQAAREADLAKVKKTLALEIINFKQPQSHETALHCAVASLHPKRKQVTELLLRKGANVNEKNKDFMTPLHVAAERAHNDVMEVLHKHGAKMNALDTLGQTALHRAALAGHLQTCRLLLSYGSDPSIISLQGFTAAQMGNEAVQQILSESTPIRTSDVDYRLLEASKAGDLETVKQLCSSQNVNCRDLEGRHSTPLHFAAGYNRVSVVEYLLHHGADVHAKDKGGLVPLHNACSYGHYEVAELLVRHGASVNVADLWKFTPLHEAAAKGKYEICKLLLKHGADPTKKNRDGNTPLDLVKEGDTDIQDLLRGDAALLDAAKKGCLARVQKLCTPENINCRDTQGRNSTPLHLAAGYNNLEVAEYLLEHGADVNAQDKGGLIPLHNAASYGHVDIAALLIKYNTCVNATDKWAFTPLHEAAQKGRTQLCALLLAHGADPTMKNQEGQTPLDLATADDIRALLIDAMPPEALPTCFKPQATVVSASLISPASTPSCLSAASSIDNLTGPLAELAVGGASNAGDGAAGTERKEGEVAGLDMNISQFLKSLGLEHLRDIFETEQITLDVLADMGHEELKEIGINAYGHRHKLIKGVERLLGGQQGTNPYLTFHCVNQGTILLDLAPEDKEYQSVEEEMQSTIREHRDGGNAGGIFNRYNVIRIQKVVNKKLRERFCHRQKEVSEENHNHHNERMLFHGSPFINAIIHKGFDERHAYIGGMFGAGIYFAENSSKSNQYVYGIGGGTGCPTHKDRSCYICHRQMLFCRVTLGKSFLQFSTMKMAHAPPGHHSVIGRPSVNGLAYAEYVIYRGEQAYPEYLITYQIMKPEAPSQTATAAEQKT

[2] = biological target: Poly [ADP-ribose] polymerase 1 (Homo sapiens, UniProt P09874); test: Inhibition of recombinant human full-length Myc/His-tagged Parp-1 expressed in baculovirus infected Sf21 insect cells assessed as reduction in auto-PARsylation using activated DNA as substrate incubated for 150 mins in presence of NAD and bio-NAD as co-substrate by TR-FRET assay
Poly [ADP-ribose] polymerase 1, sequence (P09874 whole entry): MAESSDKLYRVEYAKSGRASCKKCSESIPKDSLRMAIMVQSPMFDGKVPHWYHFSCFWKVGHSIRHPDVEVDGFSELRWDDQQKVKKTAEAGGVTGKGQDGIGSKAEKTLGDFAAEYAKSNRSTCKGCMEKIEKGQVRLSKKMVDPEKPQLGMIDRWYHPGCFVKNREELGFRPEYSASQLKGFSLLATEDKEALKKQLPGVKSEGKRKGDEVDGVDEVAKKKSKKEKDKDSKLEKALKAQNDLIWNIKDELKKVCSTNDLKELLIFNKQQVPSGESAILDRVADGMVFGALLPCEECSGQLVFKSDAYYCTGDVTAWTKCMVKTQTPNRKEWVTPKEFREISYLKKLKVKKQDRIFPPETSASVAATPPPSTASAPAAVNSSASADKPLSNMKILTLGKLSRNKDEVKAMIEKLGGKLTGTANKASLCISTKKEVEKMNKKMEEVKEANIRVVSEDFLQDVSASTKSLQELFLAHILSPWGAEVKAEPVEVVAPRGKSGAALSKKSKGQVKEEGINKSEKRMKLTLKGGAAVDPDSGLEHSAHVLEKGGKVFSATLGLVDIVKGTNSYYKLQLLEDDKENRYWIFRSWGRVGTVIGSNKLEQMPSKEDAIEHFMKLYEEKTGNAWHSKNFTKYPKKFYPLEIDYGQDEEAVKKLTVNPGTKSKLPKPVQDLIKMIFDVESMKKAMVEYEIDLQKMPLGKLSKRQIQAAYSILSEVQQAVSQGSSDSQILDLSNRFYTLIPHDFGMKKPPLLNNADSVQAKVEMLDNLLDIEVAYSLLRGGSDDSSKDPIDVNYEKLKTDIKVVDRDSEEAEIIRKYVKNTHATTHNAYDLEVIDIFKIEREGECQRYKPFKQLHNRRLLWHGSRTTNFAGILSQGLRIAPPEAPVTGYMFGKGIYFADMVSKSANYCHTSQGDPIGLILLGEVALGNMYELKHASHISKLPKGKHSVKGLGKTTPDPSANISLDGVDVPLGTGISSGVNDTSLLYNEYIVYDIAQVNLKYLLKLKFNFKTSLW

[3] = Thermodynamic solubility in phosphate buffer at pH 7.4 at 2 mg incubated under shaking condition for 6 hrs followed by rechecking and readjusting pH to 7.4 and further incubated for 18 hrs by HPLC/UV detection method; type: physicochemical; conditions: read-out: Therm_solubility
[4] = Intrinsic clearance in human liver microsomes assessed per mg protein in presence of NADPH by UPLC analysis; type: ADME, Microsome; conditions: read-out: CLH
[5] = Intrinsic clearance in mouse liver microsomes assessed per mg protein in presence of NADPH by UPLC analysis; type: ADME, Microsome; conditions: read-out: CLH
[6] = biological target: Voltage-gated inwardly rectifying potassium channel KCNH2 (Homo sapiens, UniProt Q12809); test: Inhibition of human ERG expressed in HEK293 cells at -80 mV holding potential by whole cell patch clamp method; type: cell-based
Voltage-gated inwardly rectifying potassium channel KCNH2, sequence (Q12809 whole entry): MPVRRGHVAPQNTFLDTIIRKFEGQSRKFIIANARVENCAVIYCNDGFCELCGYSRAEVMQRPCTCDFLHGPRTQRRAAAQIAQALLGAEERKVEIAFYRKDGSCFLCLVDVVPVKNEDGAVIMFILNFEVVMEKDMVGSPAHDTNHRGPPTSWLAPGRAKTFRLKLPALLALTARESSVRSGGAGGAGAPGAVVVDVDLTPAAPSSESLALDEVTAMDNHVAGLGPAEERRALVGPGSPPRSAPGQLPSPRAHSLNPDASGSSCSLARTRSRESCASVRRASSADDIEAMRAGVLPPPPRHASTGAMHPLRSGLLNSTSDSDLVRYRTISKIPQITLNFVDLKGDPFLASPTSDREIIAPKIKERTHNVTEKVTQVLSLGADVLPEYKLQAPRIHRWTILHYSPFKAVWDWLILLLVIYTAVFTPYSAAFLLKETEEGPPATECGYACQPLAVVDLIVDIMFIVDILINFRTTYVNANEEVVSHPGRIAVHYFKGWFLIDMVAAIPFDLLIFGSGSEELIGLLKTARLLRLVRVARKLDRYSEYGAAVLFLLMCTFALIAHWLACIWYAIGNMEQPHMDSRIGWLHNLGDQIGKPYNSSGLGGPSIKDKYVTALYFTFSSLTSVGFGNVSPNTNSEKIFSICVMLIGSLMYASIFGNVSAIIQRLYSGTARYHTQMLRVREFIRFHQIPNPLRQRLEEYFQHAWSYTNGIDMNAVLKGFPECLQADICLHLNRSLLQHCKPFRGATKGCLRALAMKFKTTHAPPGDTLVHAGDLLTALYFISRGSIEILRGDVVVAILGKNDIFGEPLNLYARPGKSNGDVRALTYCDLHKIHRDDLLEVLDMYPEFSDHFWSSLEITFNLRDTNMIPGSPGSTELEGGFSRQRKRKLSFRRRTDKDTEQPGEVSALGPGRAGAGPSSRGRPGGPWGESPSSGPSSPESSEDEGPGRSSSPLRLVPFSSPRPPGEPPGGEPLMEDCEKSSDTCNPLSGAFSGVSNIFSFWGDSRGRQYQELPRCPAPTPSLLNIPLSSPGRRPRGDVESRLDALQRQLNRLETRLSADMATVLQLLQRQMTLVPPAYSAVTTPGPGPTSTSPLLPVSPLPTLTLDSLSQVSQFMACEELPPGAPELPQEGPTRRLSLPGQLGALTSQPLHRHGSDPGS

IC50 [1]: 1.3 nM
IC50 [2]: 390 nM
solubility thermodynamic at 24 h [3]: 44 µg/mL
microsomal CLint [4]: < 10 µL/min/mg
microsomal CLint [5]: 77 µL/min/mg
SMILES: Cc1cc(F)cc2c(=O)[nH]c(-c3ccc(C4CCNCC4)cc3)nc12.Cl
Ki [6]: 6800 nM

Reference: ChEMBL document CHEMBL4321794, “Discovery and Optimization of 2-Arylquinazolin-4-ones into a Potent and Selective Tankyrase Inhibitor Modulating Wnt Pathway Activity” (J Med Chem, 2019)
